Results on two compounds are retold here after patent US4997454A, “Method for making uniformly-sized particles from insoluble compounds” (The University of Rochester, priority 1989, dated 1991).

Each structure is given as a SMILES string. ≈ marks a conversion by molar mass, not a printed value.

Consider `O=C1NC(=O)[C@H]2[C@H]3C=C[C@@H]([C@@H]12)[C@@H]1[C@H]2C(=O)NC(=O)[C@H]2[C@H]31` [mitindomide], for which the solubility (commonly how much of the substance goes into solution per volume) in the data set “solubility” (absolute ethanol, organic solvent or mixture) is below 4 µg/mL; in “solubility” (water) it was 70 µg/mL (≈ 257 µM).

Consider `CCOC(=O)c1c(I)cc(I)c(NC(=O)CCCCC(=O)Nc2c(I)cc(I)c(C(=O)OCC)c2I)c1I` [IDE, iodipamide ethyl ester], for which the solubility in water is 10^-5 M.
